From patent US11440923B2, “Substituted macrocyclic indole derivatives” (Bayer Aktiengesellschaft, priority 2017, dated 2022)
Where a name gives a salt, the structure may show the parent alone. Read-outs that look alike come from different tables or passages of the source.

Assays:
SUDHL10 cells = assay: Induction of cytotoxicity in SUDHL10 cells (Assay 6); type: cell-based
In short: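 Overnight seeding, 37 °C; 5 h compound exposure; CellTiter-Glo, 15 min RT shake; luminescence read. No-cell medium control.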

BCL-XL = BCL-XL (Homo sapiens (Human), UniProt Q07817); assay: Protein-protein interaction assay BCL-XL/Bad BH3 peptide (BCL-XL assay, TR-FRET); type: binding; settings: read-out: BCL-XL Assay IC50 (median)
Chain of BCL-XL (Q07817 1-212): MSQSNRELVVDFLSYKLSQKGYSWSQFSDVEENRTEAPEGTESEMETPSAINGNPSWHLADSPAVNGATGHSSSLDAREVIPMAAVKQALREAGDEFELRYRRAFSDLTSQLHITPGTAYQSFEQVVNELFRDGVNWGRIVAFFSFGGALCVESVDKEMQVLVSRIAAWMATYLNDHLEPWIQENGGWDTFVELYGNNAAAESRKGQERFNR
Method: Assay 2 Protein-Protein Interaction Assay: BCL-XL/Bad BH3 Peptide (BCL-XL Assay)
The dose-dependent inhibition by the compounds described in this invention of the interaction between BCL-XL and the BH3 domain of Bad (both human) was determined using a steady state binding competition assay with time-resolved fluorescence energy transfer (TR-FRET) readout. For that purpose BCL-XL (amino acids 1-212, C-terminal fused to a hexahistidine (6×His) tag (SEQ ID 3) and a synthetic Bad BH3-derived peptide of sequence Biotin-PEG2-PEG2-[…]-Nle-[…]-amide (SEQ ID 4) served as protein receptor and tracer ligand respectively. The recombinant BCL-XL protein (expressed in E. coli) was purchased from BPS Bioscience (San Diego, Calif., USA). The Bad BH3-derived peptide can be obtained from e.g. Biosyntan (Berlin, Germany).
In the assay 11 different concentrations of each compound (0.1 nM, 0.33 nM, 1.1 nM, 3.8 nM, 13 nM, 44 nM, 0.15 μM, 0.51 μM, 1.7 μM, 5.9 μM and 20 μM) were typically measured as duplicates in the same microtiter plate. For that, 100-fold concentrated DMSO solutions were prepared by serial dilutions (1:3.4) of a 2 mM stock solution in a clear, 384-well microtiter plate (Greiner Bio-One, Frickenhausen, Germany). From there, 50 nl were transferred in a dark test plate (Greiner Bio-One, Frickenhausen, Germany). The assay was initiated by addition of 2 μL of a 2,5-fold concentrated His-BCL-XL solution (usually for a 1 nM end concentration in 5 μL reaction volume) in aqueous assay buffer [50 mM Tris/HCl pH 7, 100 mM sodium chloride (NaCl), 50 mM potassium fluoride (KF), 0.005% Tween-20, 2 mM DTT, 0.1% bovine gamma globulin (BGG)] to the compounds in the assay plate. This was followed by a 10-minute incubation step at 22° C. for pre-equilibration of the putative complex between His-BCL-XL and the compounds. After that, 3 μL of a 1.67-fold concentrated solution (in assay buffer) consisting of Bad BH3-derived peptide (1 nM end concentration) and TR-FRET detection reagents [1.67 nM anti-His-Eu cryptate and 1.67 nM streptavidin-XL665 (both from Cisbio Bioassays, Codolet, France)], were added.
The mixture was incubated in the dark for one hour at 22° C. and then overnight at 4° C. The formation of BCL-XL/Bad complexes was determined by measuring the resonance energy transfer of the anti-His- Eu-cryptate antibody to the streptavidin-XL665 present in the reaction. For that purpose, the fluorescence emission at 620 nm and 665 nm after excitation at 330-350 nm was measured in a TR-FRET measuring instrument, for instance a Rubystar or a Pherastar (both from BMG Lab Technologies, Offenburg, Germany) or a Viewlux (Perkin-Elmer). The ratio of the emission at 665 nm and at 622 nm was used as indicator of the amount of BCL-XL/Bad complexes present.
The resulting data (ratio) were normalized, taking 0% inhibition as the mean value of control measurements (usually 32 data points) where all reagents were included. In this case 50 nl DMSO were used instead of compounds. […] IC50 values were determined by regression analysis based on a 4 parameter equation (minimum, maximum, IC50, Hill; Y=Max+(Min−Max)/(1+(X/IC50)^Hill) using the Screener Software (Genedata).

HMC-1-8 cells = assay: Antiproliferation assay HMC-1-8 (Assay 7); type: cell-based
In short: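 IC50 values reflect growth relative to a day 0 baseline (CI) and DMSO vehicle (C0). Viable cells were quantified by CellTiter-Glo luminescence after 72 h treatment at 37 °C.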

[1] = Homo sapiens, SU-DHL10, 5 h, 5 h, CellTiter-Glo; read-out: Cytotox SUDHL10 IC50 (median)
[2] = 5 h, CellTiter-Glo; read-out: Cytotox SUDHL10 IC50 (median)
[3] = read-out: Cytotox SUDHL10 IC50 (median); 5 h, CellTiter-Glo

Row | SMILES | IC50 (SUDHL10 cells; [1]) | IC50 (BCL-XL) | IC50 (HMC-1-8 cells; 72 h, CellTiter-Glo, read-out: Antiproli HMC-1-8 IC50 median) | IC50 (SUDHL10 cells; [2]) | IC50 (HMC-1-8 cells; read-out: Antiproli HMC-1-8 IC50 median; 72 h, CellTiter-Glo) | IC50 (SUDHL10 cells; [3])
1 | CCc1c2c(nn1C)C(CCO)OCCCCn1c(C(=O)O)c(CCCOc3cccc4cc(F)ccc34)c3ccc(Cl)c-2c31 (racemic) [Example 44, (rac)-4-chloro-3-ethyl-7-{3-[(6-fluoronaphthalen-1-yl)oxy]propyl}-(15-rac)-(2-hydroxyethyl)-2-methyl-2,10,11,12,13,15-hexahydropyrazolo[4′,3′:9,10][1,6]oxazacycloundecino[8,7,6-hi]indole-8-carboxylic Acid] | 0.2 µM | 12.5 µM | 2.63 µM |  |  | 
2 | CCc1c2c(nn1C)C(CCOC)OCCCCn1c(C(=O)O)c(CCCOc3cccc4cc(F)ccc34)c3ccc(Cl)c-2c31 (single isomer, unassigned; enantiomer 1) [Example 42, (+)-4-chloro-3-ethyl-7-{3-[(6-fluoronaphthalen-1-yl)oxy]propyl}-15-(2-methoxyethyl)-2-methyl-2,10,11,12,13,15-hexahydropyrazolo[4′,3′:9,10][1,6]oxazacycloundecino[8,7,6-hi]indole-8-carboxylic Acid—N-ethylethanamine Salt (Enantiomer 1)] |  | 15 µM |  | 0.066 µM | 1.08 µM | 
3 | Cc1c2c(nn1C)C(CCN1CCOCC1)OCCCCn1c(C(=O)O)c(CCCOc3cccc4cc(F)ccc34)c3ccc(F)c-2c31 (racemic) [Example 19, (rac)-4-fluoro-7-{3-[(6-fluoronaphthalen-1-yl)oxy]propyl}-2,3-dimethyl-15-[2-(morpholin-4-yl)ethyl]-2,10,11,12,13,15-hexahydropyrazolo[4′,3′:9,10][1,6]oxazacycloundecino[8,7,6-hi]indole-8-carboxylic Acid] | 0.11 µM | > 20 µM |  |  |  | 
4 | Cc1c2c(nn1C)C(C)OCCCCn1c(C(=O)O)c(CCCOc3cccc4ccccc34)c3cccc-2c31 (racemic) [Example 1, (rac)-2,3,15-trimethyl-7-[3-(naphthalen-1-yloxy)propyl]-2,10,11,12,13,15-hexahydropyrazolo[4′,3′:9,10][1,6]oxazacycloundecino[8,7,6-hi]indole-8-carboxylic Acid (Mixture of Stereoisomers)] | 6.6 µM | > 20 µM |  |  |  | 
5 | CCc1c2c(nn1C)C(CCN1CCC(F)(F)C1)OCCCCn1c(C(=O)O)c(CCCOc3cccc4cc(F)ccc34)c3ccc(Cl)c-2c31 (single isomer, unassigned; enantiomer 1) [Example 56, 4-chloro-15-[2-(3,3-difluoropyrrolidin-1-yl)ethyl]-3-ethyl-7-{3-[(6-fluoronaphthalen-1-yl)oxy]propyl}-2-methyl-2,10,11,12,13,15-hexahydropyrazolo[4′,3′:9,10][1,6]oxazacycloundecino[8,7,6-hi]indole-8-carboxylic Acid—N-ethylethanamine Salt (Enantiomer 1)] |  | > 20 µM |  | 0.039 µM |  | 
6 | Cc1c2c(nn1C)C(C)OCCCCn1c(C(=O)O)c(CCCOc3cccc4ccccc34)c3cccc-2c31 (single isomer, unassigned; stereoisomer 1) [Example 2, 2,3,15-trimethyl-7-[3-(naphthalen-1-yloxy)propyl]-2,10,11,12,13,15-hexahydropyrazolo[4′,3′:9,10][1,6]oxazacycloundecino[8,7,6-hi]indole-8-carboxylic Acid Trifluoroacetic Acid Salt (Stereoisomer 1)] |  | > 20 µM |  |  |  | 2.5 µM
7 | Cc1c2c(nn1C)C(C)OCCCCn1c(C(=O)O)c(CCCOc3cccc4ccccc34)c3cccc-2c31 (single isomer, unassigned; stereoisomer 2) [Example 3, 2,3,15-trimethyl-7-[3-(naphthalen-1-yloxy)propyl]-2,10,11,12,13,15-hexahydropyrazolo[4′,3′:9,10][1,6]oxazacycloundecino[8,7,6-hi]indole-8-carboxylic Acid Trifluoroacetic Acid Salt (Stereoisomer 2)] |  | > 20 µM |  |  |  | 26 µM
8 | Cc1c2c(nn1C)C(CCN1CCOCC1)OCCCCn1c(C(=O)O)c(CCCOc3cccc4ccccc34)c3ccc(F)c-2c31 (racemic) [Example 7, (rac)-4-fluoro-2,3-dimethyl-15-[2-(morpholin-4-yl)ethyl]-7-[3-(naphthalen-1-yloxy)propyl]-2,10,11,12,13,15-hexahydropyrazolo[4′,3′:9,10][1,6]oxazacycloundecino[8,7,6-hi]indole-8-carboxylic Acid] | 0.38 µM | > 20 µM |  |  |  | 
9 | CCc1c2c(nn1C)C(CCN1CCOCC1)OCCCCn1c(C(=O)O)c(CCCOc3cccc4ccccc34)c3ccc(F)c-2c31 (single isomer, unassigned; enantiomer 2) [Example 12, 3-ethyl-4-fluoro-2-methyl-15-[2-(morpholin-4-yl)ethyl]-7-{3-[(naphthalen-1-yl)oxy]propyl}-2,10,11,12,13,15-hexahydropyrazolo[4′,3′:9,10][1,6]oxazacycloundecino[8,7,6-hi]indole-8-carboxylic Acid—N-ethylethanamine Salt (Enantiomer 2)] |  | > 20 µM |  | 8.1 µM |  | 
10 | Cc1c2c(nn1C)C(CCN1CCOCC1)OCCCCn1c(C(=O)O)c(CCCOc3cccc4ccccc34)c3ccc(Cl)c-2c31 (single isomer, unassigned; enantiomer 2) [Example 15, 4-chloro-2,3-dimethyl-15-[2-(morpholin-4-yl)ethyl]-7-{3-[(naphthalen-1-yl)oxy]propyl}-2,10,11,12,13,15-hexahydropyrazolo[4′,3′:9,10][1,6]oxazacycloundecino[8,7,6-hi]indole-8-carboxylic Acid (Enantiomer 2)] |  | > 20 µM |  | 9.7 µM |  | 
11 | Cc1c2c(nn1C)C(CCN1CCOCC1)OCCCCn1c(C(=O)O)c(CCCOc3cccc4ccccc34)c3ccc(F)c-2c31 (single isomer, unassigned; enantiomer 2) [Example 9, 4-fluoro-2,3-dimethyl-15-[2-(morpholin-4-yl)ethyl]-7-{3-[(naphthalen-1-yl)oxy]propyl}-2,10,11,12,13,15-hexahydropyrazolo[4′,3′:9,10][1,6]oxazacycloundecino[8,7,6-hi]indole-8-carboxylic Acid—N-ethylethanamine Salt (Enantiomer 2)] |  | > 20 µM |  | 16 µM |  | 
12 | Cc1c2c(nn1C)C(CCN1CCOCC1)OCCCCn1c(C(=O)O)c(CCCOc3cccc4ccccc34)c3ccc(Cl)c-2c31 (racemic) [Example 13, (rac)-4-chloro-2,3-dimethyl-15-[2-(morpholin-4-yl)ethyl]-7-{3-[(naphthalen-1-yl)oxy]propyl}-2,10,11,12,13,15-hexahydropyrazolo[4′,3′:9,10][1,6]oxazacycloundecino[8,7,6-hi]indole-8-carboxylic Acid] | 0.21 µM | > 20 µM |  |  |  | 
13 | Cc1c2c(nn1C)C(CCN1CCOCC1)OCCCCn1c(C(=O)O)c(CCCOc3cccc4ccccc34)c3cccc-2c31 (single isomer, unassigned; stereoisomer 2) [Example 6, 2,3-dimethyl-15-[2-(morpholin-4-yl)ethyl]-7-[3-(naphthalen-1-yloxy)propyl]-2,10,11,12,13,15-hexahydropyrazolo[4′,3′:9,10][1,6]oxazacycloundecino[8,7,6-hi]indole-8-carboxylic Acid (Stereoisomer 2)] |  | > 20 µM |  | 29 µM |  | 
